Laboratory results: patent US20110189174A1, “COMPOSITIONS AND METHODS FOR TREATING, REDUCING, AMELIORATING, ALLEVIATING, OR INHIBITING PROGRESSION OF, PATHOGENIC OCULAR NEOVASCULARIZATION” (priority 2010, published 2011)
Where “and” joins values, the source holds several entries; their conditions need not be identical. Identical values can stand only once. Marks after values point to notes of the source that are not given here.

Tests used:
[1] = system: laser-induced CNV in monkeys; test: Laser-induced choroidal neovascularization in monkeys, fluorescein angiography lesion grading; format: in vivo, cynomolgus monkeys (Macaca fascicularis); conditions: for Incidence of CNV lesions, Lesion Grade I (% Total) / Incidence of CNV lesions, Lesion Grade II (% Total) / Incidence of CNV lesions, Lesion Grade III (% Total) / Incidence of CNV lesions, Lesion Grade IV (% Total): intravitreal, both eyes, days 1 and 15, 1.5 mg/eye (Lucentis 0.5 mg/eye); for Overall grade IV lesions versus vehicle control group: all time points together, Chi square test; for Incidence of grade IV lesions compared to vehicle control: days 22, 29 and 37, 1.5 mg/eye in oil formulation; for Overall Grade IV lesions (%): days 22, 29 and 37 summed, 1.5 mg/eye intravitreal days 1 and 15
Experimental: Study was performed in three phases. In phases Ia and Ib, the behavior of the suspension in aqueous (Ia) and oil (Ib) formulations, and multiple dosing regimens as well as any adverse effect due to multiple dosing at 3 mg/eye (Ia) or 1.5 (Ib) were investigated. In phase II test articles were administered twice during the study period on days 1 and 15. Eyes were examined with an indirect ophthalmoscope and fundus camera.
Adult male cynomolgus monkeys (Macaca fascicularis) age 2-7 years old were used to test the efficacy of BOL-303050-X, BOL-303054-X and BOL-303055-X. Lucentis® (ranibizumab) was used as historic control.
Both eyes of 46 monkeys were examined at baseline and then 42 animals were randomized into 5 groups. On Phase II Day 8 of Dosing, the animals were anesthetized with ketamine and dexmedetomidine and the macula of each eye of the animals in Groups 1 through […] underwent laser treatment by a retinal surgeon with a 532 nm diode green laser (OcuLight GL, IRIDEX Corp. Inc., Mountain View, Calif.) using a slit lamp delivery system and a Kaufman-Wallow (Ocular Instruments Inc, Bellevue, Wash.) plano fundus contact lens with Gonak (2.5%) as the coupling agent. Nine laser spot areas were symmetrically placed in the macula of each eye. The laser parameters included a 75 micron spot size and 0.1 second duration. The power setting used was assessed by the ability to produce a blister and a small hemorrhage. […] For areas not adjacent to the fovea, the initial power setting was 500 mW; if a second spot was placed, the power was set to 650 mW. For the area adjacent to the fovea the power settings were 400 mW (initial treatment) and 550 mW (second treatment). At the discretion of the retinal surgeon, power settings were adjusted based on observations at the time of laser. Power setting used for each spot was documented as well as number of burns per spot and whether hemorrhage occurred.
Once the phase Ib study was completed, and it was established that the drug suspension in oil would not interfere with either laser administration, evaluation of CNV or cause adverse effects, phase II was initiated. On days 1, and 15 both eyes of monkeys received 50 μL of Lucentis (0.5 mg/eye), vehicle (0 mg/eye), BOL-303050-X (1.5 mg/eye), BOL-303054-X (1.5 mg/eye) or BOL-303055-X (1.5 mg/eye) (Table 2). Intravitreous injection was performed for each by eye aiming towards mid-vitreous body. Dosing in the right eye was alternated for successive doses (as applicable) at approximately the 11 o'clock and 10 o'clock positions. Dosing in the left eye was alternated for successive doses (as applicable) from approximately the 1 o'clock and 2 o'clock positions.
Animals were anesthetized with ketamine and dexmedetomidine. A topical anesthetic (0.5% proparacaine) was instilled in each eye before dose administration. A wire speculum was used to retract the eyelids. The eyes were cleaned with a 2.5% povidone iodine solution and then rinsed with sterile saline. Each animal was dosed using 1 cc tuberculin syringes and 30 gauge needles.
FA was performed at baseline, on days 22, 29 and 37 (approximately 14, 21 and 28 days post-laser). Digital ocular photographs were taken in conjunction with FA. The FA procedure is well known by people skilled in the art of ophthalmology.
Evaluation of FA was done according to the following grading system for evidence of excessive permeability (fluorescein leakage) or any other abnormalities.
Grade IV lesions are considered to be clinically significant as these most closely resemble the active forms of classical CNV seen in various human retinal disorders, including age-related macular degeneration. Comparison of the incidence of Grade IV lesions between treatment groups was evaluated.
Grade IV lesions were analyzed using either Fisher's exact probability test (2-Tail) or Chi square test (χ2). […]

[2] = system: human retinal endothelial cells (HREC); test: PMA-induced HREC network formation in fibrin gel; format: cell-based; conditions: PMA 25 ng/mL, vs PMA control
Experimental: Prior to the start of the experiment, HREC from Cell Systems were cultured in flask in CS-C complete medium. The tube formation assay was performed in a 96-well plate pre-coated with fibrin gel. HREC were collected from flasks and re-suspended 1% FBS EBM-2 medium. Cells were pre-incubated with the integrin antagonists, echistatin or vehicle control for 30 min before loading onto the fibrin gel. Images were taken at 9 h.
Thrombin solution and fibrinogen solutions were allowed to thaw at room temperature and 37° C. water bath, respectively. Fibrinogen solution at 30 μL was added into the desired number of wells in a 96-well plate. Plate was gently shaken to ensure uniform coverage of fibrinogen solution in the well. Thrombin at 20 μL was added into each well. The plate was gently shaken immediately to ensure the thrombin was mixed well with fibrinogen. The plate was placed at 37° C. overnight to allow the fibrin gel to polymerize.
HREC were trypsinized at about 80% confluence and counted by standard hemocytometer methods. After deactivating trypsin with 5 mL of 10% FBS EBM-2 medium, the cells were centrifuged (800 rpm, 8 min) and re-suspended at 2×10^5 cells/mL in 1% FBS EBM-2 medium
Cells were pre-incubated with integrin compounds or echistatin at 37° C., 5% CO2, and 95% humidity for 30 minutes before mixing with PMA medium. The final concentrations of all agents are shown in the design table. The 100 μL of the cell mixture was added onto the gel and cells were cultured at 37° C., 5% CO2, and 95% humidity. Images were taken at different time points.
The network formation scoring system (a five point-scale)
Each well in one group was given a score and then averaged. Data were expressed as mean±SEM of network formation scores. Statistical analysis was performed using a one-way ANOVA-Dunnett's test in raw data, and p<0.05 was considered statistically significant. Data analysis was performed using statistical analysis software JMP (SAS Institute, Cary, N.C.).

## CCc1nc(NC[C@H](NC(=O)OCc2ccccc2)C(=O)O)c(C)c(N2CCC(c3ccc4c(n3)NCCC4)CC2)n1 [BOL-303055-X]
[1]; Day 22
  Incidence of CNV lesions, Lesion Grade I (% Total): 73:162 (45.06) %
  Incidence of CNV lesions, Lesion Grade II (% Total): 6:162 (3.7) %
  Incidence of CNV lesions, Lesion Grade III (% Total): 6:162 (3.70) %
  Incidence of CNV lesions, Lesion Grade IV (% Total): 47.53% and 77:162 (47.53) %
[1]; Day 29
  Incidence of CNV lesions, Lesion Grade I (% Total): 75:162 (46.3) %
  Incidence of CNV lesions, Lesion Grade II (% Total): 5:162 (3.09) %
  Incidence of CNV lesions, Lesion Grade III (% Total): 12:162 (7.41) %
  Incidence of CNV lesions, Lesion Grade IV (% Total): 43.21% and 70:162 (43.21) %
[1]; Day 37
  Incidence of CNV lesions, Lesion Grade I (% Total): 80:162 (49.38) %
  Incidence of CNV lesions, Lesion Grade II (% Total): 7:162 (4.32) %
  Incidence of CNV lesions, Lesion Grade III (% Total): 5:162 (3.68) %
  Incidence of CNV lesions, Lesion Grade IV (% Total): 44.44% and 72:162 (44.44) %
[1]
  Overall grade IV lesions versus vehicle control group: significantly increased
  Incidence of grade IV lesions compared to vehicle control: higher incidences of grade IV lesions compared to the vehicle control
  Overall Grade IV lesions (%): (45.06)* %
[2]; 10 nM
  Inhibition of PMA-induced HREC network formation in fibrin gel: significantly inhibited

## COc1ccc(S(=O)(=O)N[C@@H](CNc2nc(C)nc(N3CCC(c4ccc5c(n4)NCCC5)CC3)c2C)C(=O)O)cc1 [BOL-303050-X]
[1]; Day 22
  Incidence of CNV lesions, Lesion Grade I (% Total): 126:148 (85.14) %
  Incidence of CNV lesions, Lesion Grade II (% Total): 12:148 (8.11) %
  Incidence of CNV lesions, Lesion Grade III (% Total): 4:148 (2.70) %
  Incidence of CNV lesions, Lesion Grade IV (% Total): 4.05% and 6:148 (4.05) %
[1]; Day 29
  Incidence of CNV lesions, Lesion Grade I (% Total): 132:150 (88.00) %
  Incidence of CNV lesions, Lesion Grade II (% Total): 11:150 (7.33) %
  Incidence of CNV lesions, Lesion Grade III (% Total): 3:150 (2.00) %
  Incidence of CNV lesions, Lesion Grade IV (% Total): 2.67% and 4:150 (2.67) %
[1]; Day 37
  Incidence of CNV lesions, Lesion Grade I (% Total): 136:162 (83.95) %
  Incidence of CNV lesions, Lesion Grade II (% Total): 15:162 (9.26) %
  Incidence of CNV lesions, Lesion Grade III (% Total): 8:162 (4.94) %
  Incidence of CNV lesions, Lesion Grade IV (% Total): 1.85% and 3:162 (1.85) %
[1]
  Overall grade IV lesions versus vehicle control group: significantly reduced
  Incidence of grade IV lesions compared to vehicle control: reduced compared to vehicle-treated eyes
  Overall Grade IV lesions (%): (2.83)* %
[2]; 1 nM
  Inhibition of PMA-induced HREC network formation in fibrin gel: significantly inhibited
[2]; 10 nM
  Inhibition of PMA-induced HREC network formation in fibrin gel: significantly inhibited

## COc1c(NC[C@H](NC(=O)OCc2ccccc2)C(=O)O)ncnc1N1CCC(c2ccc3c(n2)NCCC3)CC1 [BOL-303054-X]
[1]; Day 22
  Incidence of CNV lesions, Lesion Grade I (% Total): 79:133 (59.40) %
  Incidence of CNV lesions, Lesion Grade II (% Total): 1:133 (0.75) %
  Incidence of CNV lesions, Lesion Grade III (% Total): 8:133 (6.01) %
  Incidence of CNV lesions, Lesion Grade IV (% Total): 45:133 (33.83) %
[1]; Day 29
  Incidence of CNV lesions, Lesion Grade I (% Total): 80:133 (60.15) %
  Incidence of CNV lesions, Lesion Grade II (% Total): 5:133 (3.76) %
  Incidence of CNV lesions, Lesion Grade III (% Total): 2:133 (1.50) %
  Incidence of CNV lesions, Lesion Grade IV (% Total): 46:133 (34.59) %
[1]; Day 37
  Incidence of CNV lesions, Lesion Grade I (% Total): 83:136 (61.03) %
  Incidence of CNV lesions, Lesion Grade II (% Total): 6:136 (4.41) %
  Incidence of CNV lesions, Lesion Grade III (% Total): 5:136 (3.68) %
  Incidence of CNV lesions, Lesion Grade IV (% Total): 41:136 (30.15) %
[1]
  Overall grade IV lesions versus vehicle control group: not statistically significant
  Incidence of grade IV lesions compared to vehicle control: higher incidences of grade IV lesions compared to the vehicle control
  Overall Grade IV lesions (%): (32.84) %
[2]; 1 nM
  Inhibition of PMA-induced HREC network formation in fibrin gel: not statistically significant
[2]; 10 nM
  Inhibition of PMA-induced HREC network formation in fibrin gel: not statistically significant
